Entries after “also recorded” stand apart in the source; their conditions may differ.
Key:
[1] = Safety and tolerability, study 2; assay type: in vivo, human
Experimental: Safety and tolerability were assessed on the basis of adverse events (AEs), which were monitored throughout both studies. Additional safety assessments included vital signs (including supine [and standing in study 2] heart rate, systolic and diastolic blood pressure, and oral body temperature), 12‐lead electrocardiogram (ECG), clinical laboratory tests (hematology, coagulation [study 2 only], serum/plasma chemistry, urinalysis, urine drug screen, serology, and alcohol breath test), and a comprehensive physical examination. In the SAD part of study 1, clinical laboratory tests, physical examination, and vital signs were assessed at the screening visit, at the time of dosing (0 hours after dose), 24 hours after dosing and at follow‐up (7 to 10 days after the final dose). Vital signs were additionally observed 2 hours after dosing, and the 12‐lead ECG was additionally completed at 1, 2, 6, 8, and 12 hours after dosing. In the MAD part of study 1, all additional safety assessments were performed at screening; days 1, 2, 8, 14, and 15; and at follow‐up. In study 2, additional safety assessments were performed at screening (between 21 and 2 days before the first study drug administration); days 1, 2, 5, 10, 14, 15, and 20 (clinical laboratory tests were not performed on day 20); at early discontinuation; and at follow‐up. For study 2, renal function tests (measurement of estimated creatinine clearance rate using the Cockcroft‐Gault equation) were also included in the clinical laboratory tests for safety assessment.
In both studies, the safety analysis was descriptive and focused on changes from baseline and treatment‐emergent findings.

CYP2C19 [2] = tested on: CYP2C19; set-up: method as in data on file at Galapagos; settings: in vitro; ref data on file at Galapagos; cited from earlier work
[3] = set-up: method as in PMID 32902984; settings: monkeys, up to 30 mg/kg/d; cited from earlier work
CYP2C19 [4] = tested on: CYP2C19; set-up: method as in data on file at Galapagos, 8, 9; settings: 100 mg once daily, healthy male subjects; ref data on file at Galapagos, 8, 9; cited from earlier work
CYP2C9 = tested on: CYP2C9; set-up: method as in data on file at Galapagos; settings: in vitro; ref data on file at Galapagos; cited from earlier work
CYP1A2 = tested on: CYP1A2; set-up: method as in data on file at Galapagos, 8, 9; settings: 100 mg once daily, healthy male subjects; ref data on file at Galapagos, 8, 9; cited from earlier work
CYP3A4 = CYP3A4 induction by 6β-OH-cortisol/cortisol ratio in urine; assay type: in vivo, human; settings: 50 mg, 100 mg and 200/150 mg once daily; days -1 and 13
Experimental: The potential of CYP3A4 induction was assessed by means of the ratio of 6β‐OH‐cortisol to cortisol in urine.[10], [11], [12], [13], [14] Cortisol concentrations in urine were determined by using a radioimmunoassay method based on competition between labeled antigens and antigens on the specific sites of the antiserum coated on the tubes. At the end of the incubation period, the liquid in the tubes was removed by aspiration and the radioactivity (^125I‐cortisol) was measured using a gamma counter (Packard Cobra II auto‐gamma counter; Packard Instrument Co Inc, Meriden, Connecticut). […] The best curve was determined by the polynomial second‐order equation. The limit of quantification of the cortisol assay for the urine samples was set at 10 ng/mL.
6β‐OH‐cortisol concentrations in urine were determined by using a 2‐step, quantitative competitive enzyme immunoassay technique. […] The calibration equation was computed using SoftMax Pro software (Molecular Devices, Sunnyvale, California) by plotting the log of 6β‐OH‐cortisol concentrations versus the A/Ao (when A was standard or sample 6β‐OH‐cortisol absorbance and Ao was the standard 0 absorbance). The best line was determined by using the 4‐parameter logistic model. The limit of quantification of the 6β‐OH‐cortisol assay for the urine samples was set at 50 pg/mL. […]

CYP2B6 = tested on: CYP2B6; set-up: method as in data on file at Galapagos; settings: in vitro; ref data on file at Galapagos; cited from earlier work
[5] = part 1, 50 mg QD, 18–50 years (n = 6)
[6] = part 1, 50 mg QD, 65–74 years (n = 6)
[7] = part 1, 50 mg QD, ≥ 75 years (n = 6)
[8] = part 2, 250 mg loading dose + 50 mg QD, 65–74 years (n = 8)

**Q.** Which “Any TEAE” value [1, 5] does the source give for `O=c1nc(OC[C@@H]2COCCO2)cc2n1CCc1cc(C#CC3CC3)ccc1-2` [GLPG1205, 9‐cyclopropylethynyl‐2‐((S)‐1‐[1,4]dioxan‐2‐ylmethoxy)‐6,7‐dihydropyrimido[6,1‐a]isoquinolin‐4‐one] here?
**A.** Its value is 5 (83.3) number of subjects (%).

**Q.** And the “Diarrhea (TEAE)” value [1, 5]?
**A.** Its value is 0 number of subjects (%).

**Q.** And the “Erectile dysfunction (TEAE)” value [1, 5]?
**A.** Its value is 2 (33.3) number of subjects (%).

**Q.** And the “Gastrointestinal disorders (TEAE)” value [1, 5]?
**A.** Its value is 2 (33.3) number of subjects (%).

**Q.** What about the “Headache (TEAE)” value [1, 5] of the same compound?
**A.** Its value is 3 (50.0) number of subjects (%).

**Q.** What about the “Infections and infestations (TEAE)” value [1, 5] of the same compound?
**A.** Its value is 1 (16.7) number of subjects (%).

**Q.** What about the “Nasopharyngitis (TEAE)” value [1, 5] of the same compound?
**A.** Its value is 1 (16.7) number of subjects (%).

**Q.** What about the “Nausea (TEAE)” value [1, 5] of the same compound?
**A.** Its value is 2 (33.3) number of subjects (%).

**Q.** And the “Nervous system disorders (TEAE)” value [1, 5]?
**A.** The value was 3 (50.0) number of subjects (%).

**Q.** And the “Reproductive system and breast disorders (TEAE)” value [1, 5]?
**A.** Its value is 2 (33.3) number of subjects (%).

**Q.** What about the “Vomiting (TEAE)” value [1, 5] of the same compound?
**A.** The value was 0 number of subjects (%).

**Q.** And the “Any TEAE” value [1, 6]?
**A.** The value was 5 (83.3) number of subjects (%).

**Q.** And the “Diarrhea (TEAE)” value [1, 6]?
**A.** Its value is 0 number of subjects (%).

**Q.** And the “Erectile dysfunction (TEAE)” value [1, 6]?
**A.** The value was 0 number of subjects (%).

**Q.** And the “Gastrointestinal disorders (TEAE)” value [1, 6]?
**A.** The value was 1 (16.7) number of subjects (%).

**Q.** What about the “Headache (TEAE)” value [1, 6] of the same compound?
**A.** The value was 3 (50.0) number of subjects (%).

**Q.** What about the “Infections and infestations (TEAE)” value [1, 6] of the same compound?
**A.** Its value is 3 (50.0) number of subjects (%).

**Q.** And the “Nasopharyngitis (TEAE)” value [1, 6]?
**A.** The value was 2 (33.3) number of subjects (%).

**Q.** What about the “Nausea (TEAE)” value [1, 6] of the same compound?
**A.** Its value is 0 number of subjects (%).

**Q.** What about the “Nervous system disorders (TEAE)” value [1, 6] of the same compound?
**A.** Its value is 4 (66.7) number of subjects (%).

**Q.** And the “Reproductive system and breast disorders (TEAE)” value [1, 6]?
**A.** Its value is 0 number of subjects (%).

**Q.** What about the “Vomiting (TEAE)” value [1, 6] of the same compound?
**A.** Its value is 0 number of subjects (%).

**Q.** And the “Any TEAE” value [1, 7]?
**A.** The value was 3 (50.0) number of subjects (%).

**Q.** What about the “Diarrhea (TEAE)” value [1, 7] of the same compound?
**A.** Its value is 0 number of subjects (%).

**Q.** And the “Erectile dysfunction (TEAE)” value [1, 7]?
**A.** Its value is 0 number of subjects (%).

**Q.** And the “Gastrointestinal disorders (TEAE)” value [1, 7]?
**A.** Its value is 1 (16.7) number of subjects (%).

**Q.** What about the “Headache (TEAE)” value [1, 7] of the same compound?
**A.** Its value is 0 number of subjects (%).

**Q.** And the “Infections and infestations (TEAE)” value [1, 7]?
**A.** Its value is 0 number of subjects (%).

**Q.** And the “Nasopharyngitis (TEAE)” value [1, 7]?
**A.** Its value is 0 number of subjects (%).

**Q.** What about the “Nausea (TEAE)” value [1, 7] of the same compound?
**A.** Its value is 0 number of subjects (%).

**Q.** What about the “Nervous system disorders (TEAE)” value [1, 7] of the same compound?
**A.** The value was 0 number of subjects (%).

**Q.** What about the “Polyuria (TEAE)” value [1, 7] of the same compound?
**A.** Its value is 2 (33.3) 2 (33.3) number of subjects (%).

**Q.** What about the “Renal and urinary disorders (TEAE)” value [1, 7] of the same compound?
**A.** Its value is 2 (33.3) 2 (33.3) number of subjects (%).

**Q.** And the “Reproductive system and breast disorders (TEAE)” value [1, 7]?
**A.** Its value is 0 number of subjects (%).

**Q.** And the “Vomiting (TEAE)” value [1, 7]?
**A.** The value was 0 number of subjects (%).

**Q.** And the “Any TEAE” value [1, 8]?
**A.** Its value is 7 (87.5) number of subjects (%).

**Q.** And the “Diarrhea (TEAE)” value [1, 8]?
**A.** Its value is 1 (12.5) number of subjects (%).

**Q.** What about the “Erectile dysfunction (TEAE)” value [1, 8] of the same compound?
**A.** The value was 0 number of subjects (%).

**Q.** And the “Gastrointestinal disorders (TEAE)” value [1, 8]?
**A.** The value was 4 (50.0) number of subjects (%).

**Q.** What about the “Headache (TEAE)” value [1, 8] of the same compound?
**A.** Its value is 1 (12.5) number of subjects (%).

**Q.** And the “Infections and infestations (TEAE)” value [1, 8]?
**A.** Its value is 0 number of subjects (%).

**Q.** And the “Nasopharyngitis (TEAE)” value [1, 8]?
**A.** Its value is 0 number of subjects (%).

**Q.** And the “Nausea (TEAE)” value [1, 8]?
**A.** Its value is 3 (37.5) number of subjects (%).

**Q.** And the “Nervous system disorders (TEAE)” value [1, 8]?
**A.** The value was 1 (12.5) number of subjects (%).

**Q.** What about the “Polyuria (TEAE)” value [1, 8] of the same compound?
**A.** Its value is 0 number of subjects (%).

**Q.** And the “Renal and urinary disorders (TEAE)” value [1, 8]?
**A.** Its value is 0 number of subjects (%).

**Q.** What about the “Reproductive system and breast disorders (TEAE)” value [1, 8] of the same compound?
**A.** The value was 0 number of subjects (%).

**Q.** What about the “Vomiting (TEAE)” value [1, 8] of the same compound?
**A.** The value was 2 (25.0) number of subjects (%).

**Q.** And the “nausea of mild intensity” value ([1]; part 2, loading dose)?
**A.** Its value is 2 n.

**Q.** What about the “nausea of moderate intensity” value ([1]; part 2, loading dose) of the same compound?
**A.** The value was 1 n.

**Q.** What about the “inhibition of CYP2C19” value (CYP2C19 [2]) of the same compound?
**A.** Its value is “weak inhibition”.

**Q.** What about the dose-proportionality of exposure [3] of the same compound?
**A.** The dose-proportionality of exposure was “increased dose‐proportionally”.

**Q.** And the “effect on exposure of CYP2C19” value (CYP2C19 [4])?
**A.** Its value is “did not affect the exposure”.

**Q.** And the “inhibition of CYP2C9” value (CYP2C9)?
**A.** Its value is “weak inhibition”.

**Q.** And the “effect on exposure of CYP1A2” value (CYP1A2)?
**A.** Its value is “did not affect the exposure”.

**Q.** And the “6β‐OH‐cortisol/cortisol ratio in urine” value (CYP3A4)?
**A.** The value was “No significant day and dose effects; also recorded: did not impact”.

**Q.** What about the “inhibition of CYP2B6” value (CYP2B6) of the same compound?
**A.** The value was “weak inhibition”.
